Measurements: article PMC4398321, “Epoxide based inhibitors of the hepatitis C virus non-structural 2 autoprotease” (Antiviral Research, 2015)

How the values were obtained:
[1] = Cell viability endpoint assay (Thiazolyl Blue Tetrazolium Bromide); assay type: cell-based; details: human, Huh7 cells (hepatoma cell line); 72 h incubation, 11-point dose response
Protocol: (§1) Cellular metabolism was quantified by 2 h incubation in 1 mM Thiazolyl Blue Tetrazolium Bromide (Sigma Aldrich) before crystals were suspended in 100 μl DMSO and absorbance at 570 nm measured using an infinite F50 platereader (Tecan). Data was normalised to DMSO control. CC50 was calculated using Prism 6 (GraphPad).
(§2) In other systems, the requirement of epoxide-based inhibitors to form a transient interaction with the protease before becoming covalently linked allows them greater selectivity and makes them more amenable to in vivo applications ([Powers et al., 2002]). To explore the potential for bis-amido based epoxide warheads to exert an inhibitory effect within a HCV model system, compounds 1–10 and cerulenin were tested for cytotoxic effects by calculating CC50 from 72 h incubation in a hepatoma cell line capable of supporting HCV replication (Supplementary Fig. 2). Of the compounds showing significant activity in vitro only 1 and 7 exerted no significant cytotoxicity up to 100 μM (Table 1).

[2] = target: T1, JFH1 NS2–3 (NS2 autoprotease) (Hepatitis C virus genotype 2a, UniProt Q99IB8); experiment: NS2–3 auto-processing (refolding) assay, JFH1; assay type: biochemical, Hepatitis C virus genotype 2a isolate JFH1; details: for EC50: JFH1 NS2–3 refolding reaction, 10-point dose response, NS3-FLAG product quantified by western blot
T1 construct: (JFH1 polyprotein residues 906–1209, J4 residues 904–1206); His tag (N); made in house; host or cells: E. coli BL21 (DE3) pLysS, pET23a
Protocol: NS2–3 at 20 μM in 6 M GdnHCl was diluted 1:100 into Refolding buffer (30% glycerol, 0.5% CHAPS, 250 mM NaCl, 3 mM cysteine, 50 μM ZnCl2, 10 mM DTT, 50 mM HEPES–NaOH, pH 7.0) and incubated 16 h RT. Compounds (133 × final concentration in DMSO) were diluted into Refolding buffer before the addition of NS2–3 to yield required final concentrations. Reactions were halted by the addition of ¼ volume 4 × Laemmli buffer (200 mM Tris–HCl pH 6.8, 40% glycerol, 8% SDS, 0.08% bromophenol blue, 20 mM DTT) and analysed by 15% SDS–PAGE and western blot using M2 anti-FLAG monoclonal antibody (Sigma Aldrich) followed by IRDye 680RD Donkey anti-Mouse secondary (LI-COR Biosciences). Imaging and analysis was performed using Odyssey imager (LI-COR Biosciences). Intensity of the 20 kDa proteolysis product (NS3-FLAG) was quantified to calculate 50% effective concentration (EC50) using Prism 6 (GraphPad).
To assess the ability of a small molecule to inhibit NS2 protease activity, an in vitro auto-processing assay was employed. A NS2–NS3 precursor protein (NS2–3) comprising the catalytic C-terminal domain of NS2 and the N-terminal protease domain of NS3 (JFH1 polyprotein residues 906–1209, J4 residues 904–1206) flanked by an N-terminal His tag and C-terminal FLAG tag was bacterially expressed and purified from inclusion bodies under denaturing conditions by immobilised metal ion affinity chromatography (IMAC). Upon dilution into Refolding buffer, NS2–3 forms significant secondary structure ([Foster et al., 2010]) allowing the autoprotease to become active. This can be monitored by western blot analysis of NS2–3 refolding reactions with an anti-FLAG antibody to reveal 35 kDa precursor NS2–3-FLAG and 20 kDa NS3-FLAG, one of the proteolysis products. Quantification of the proteolysis product was used as a relative measure of NS2 autoprotease activity.

[3] = target: T1, JFH1 NS2–3 (NS2 autoprotease); design: method as in Pieroni et al., 1997; Thibeault et al., 2001; details: ref Pieroni et al., 1997; Thibeault et al., 2001; cited from earlier work
[4] = test system: Huh7 cells; experiment: Cell viability endpoint assay (Thiazolyl Blue Tetrazolium Bromide); assay type: cell-based; details: 72 h incubation, 11-point dose response
Protocol: as §1, §2

[5] = test system: SGR-JFH1-NS3-5B; experiment: SGR firefly luciferase assay, NS2-independent JFH1 replicon; assay type: cell-based, Hepatitis C virus genotype 2a isolate JFH1; details: Telaprevir 150 nM, 48 h
Protocol: (§3) Stable cell lines harbouring SGR (Supplementary material) were maintained in Dulbecco’s modified Eagle’s medium (DMEM; Sigma) supplemented with 10% foetal bovine serum (FBS), 100 IU penicillin ml^−1, 100 μg streptomycin ml^−1, 1% non-essential amino acids and 300 μg/ml G418 (Sigma) in a humidified incubator at 37 °C in 5% CO2. Cells were seeded at a density of 2 × 10^4 cells/well in a 96 well plate. After 16 h media was removed and replaced with media supplemented with the indicated concentrations of compounds with standard DMSO at 0.25%. Plates were incubated in the absence of G418 for a further 48 h.
(§4) Luciferase activity was quantified by addition of 30 μl Passive Lysis Buffer (PLB: Promega) and addition of 40 μl LarI reagent (Promega) using a BMG Labtech plate reader with light emission recorded over 6 s. Data was normalised to DMSO control. Statistical significance was determined using the Student’s t test. […]
(§5) Constructs for HCV SGRs of the genotype 1b Con1 (BM4-5) and genotype 2a JFH1 isolates containing a firefly luciferase – neomycin phosphotransferase fusion protein (ffLuc - NPT) have been previously reported (Wyles et al., 2009, Wyles et al., 2007), into which the relevant NS2 coding sequence was introduced. […] Transcripts were purified by phenol/chloroform extraction and quantified by absorbance at 260 nm. […]

[6] = test system: SGR-JFH1-NS3-5B cell line; experiment: Cellular metabolism of SGR-JFH1-NS3-5B cell line; assay type: cell-based; details: Telaprevir 150 nM, 48 h
Protocol: as §3, §1

[7] = test system: SGR-JFH1-NS2-5B cell line; experiment: Cellular metabolism of SGR-JFH1-NS2-5B cell line; assay type: cell-based; details: Telaprevir 150 nM, 48 h
Protocol: as §3, §1

[8] = test system: SGR-JFH1-NS2-5B; experiment: SGR firefly luciferase assay, NS2-dependent JFH1 replicon; assay type: cell-based, Hepatitis C virus genotype 2a isolate JFH1; details: Telaprevir 150 nM, 48 h
Protocol: as §3, §4, §5

T1 sequence (Q99IB8 906-1209): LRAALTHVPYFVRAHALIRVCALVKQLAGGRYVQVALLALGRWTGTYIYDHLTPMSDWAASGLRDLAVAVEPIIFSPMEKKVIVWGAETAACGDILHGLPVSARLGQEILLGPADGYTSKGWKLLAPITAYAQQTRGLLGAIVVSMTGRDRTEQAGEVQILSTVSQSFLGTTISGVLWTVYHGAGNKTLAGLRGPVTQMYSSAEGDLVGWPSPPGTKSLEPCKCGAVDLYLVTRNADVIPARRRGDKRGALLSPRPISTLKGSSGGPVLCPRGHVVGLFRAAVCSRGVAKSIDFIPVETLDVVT

C/C=C/C/C=C/CCC(=O)[C@H]1O[C@H]1C(N)=O [Cerulenin]
CC50 at 72 h [1]: 31.9 µM
EC50 [2]: > 300 µM
Activity against the NS2 autoprotease (in words) ([2]; JFH1 NS2–3 refolding, dose response): no activity

CC(C)C[C@H](NC(=O)[C@H]1O[C@@H]1C(=O)O)C(=O)NCCCCN=C(N)N [Compound E64]
Activity against the NS2 autoprotease [3]: inactive
Inhibition of NS2 autoprotease ([2]; E64 300 μM): not inhibited

O=C(O)CN(CCN(CC(=O)O)CC(=O)O)CC(=O)O [EDTA]
Inhibition of NS2 autoprotease activity ([2]; EDTA 10 mM): inhibited

Cc1ccc(S(=O)(=O)N[C@@H](Cc2ccccc2)C(=O)CCl)cc1 [TPCK, Tosyl phenylalanine chloromethyl ketone]
CC50 [4]: 3.3 µM
EC50 [2]: 15.3 µM

CCC[C@H](NC(=O)[C@@H]1[C@H]2CCC[C@H]2CN1C(=O)[C@@H](NC(=O)[C@@H](NC(=O)c1cnccn1)C1CCCCC1)C(C)(C)C)C(=O)C(=O)NC1CC1 [Telaprevir]
Luciferase activity [5]: comparable reduction
Cellular metabolism [6]: no effect
Cellular metabolism [7]: no effect
Luciferase activity [8]: comparable reduction
